Assay results published in US8703768B2, “Nitrogen containing heteroaryl compounds” (Hoffmann-La Roche Inc., priority 2010, dated 2014).
pIC50: −log10 of the molar value.

molecular target: human PDE10A (Homo sapiens (Human), UniProt Q9Y233); test: human PDE10A full length Scintillation Proximity Assay (SPA); type: biochemical; conditions: 50 nM cGMP and 50 nM [3H]-cGMP, 20 minutes at room temperature; read-out: PDE10A inhibition IC50
Procedure, shortened: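 Radiometric SPA read-out: after 20 min at room temperature with [^3H]-cGMP/cGMP substrate, zinc sulphate (18 mM) bead stop reagent added and counts read after 1 h. Non-specific signal defined without enzyme; full-length protein used.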

human PDE10A, sequence (Q9Y233 other isoform, or with tags, fused parts or gaps): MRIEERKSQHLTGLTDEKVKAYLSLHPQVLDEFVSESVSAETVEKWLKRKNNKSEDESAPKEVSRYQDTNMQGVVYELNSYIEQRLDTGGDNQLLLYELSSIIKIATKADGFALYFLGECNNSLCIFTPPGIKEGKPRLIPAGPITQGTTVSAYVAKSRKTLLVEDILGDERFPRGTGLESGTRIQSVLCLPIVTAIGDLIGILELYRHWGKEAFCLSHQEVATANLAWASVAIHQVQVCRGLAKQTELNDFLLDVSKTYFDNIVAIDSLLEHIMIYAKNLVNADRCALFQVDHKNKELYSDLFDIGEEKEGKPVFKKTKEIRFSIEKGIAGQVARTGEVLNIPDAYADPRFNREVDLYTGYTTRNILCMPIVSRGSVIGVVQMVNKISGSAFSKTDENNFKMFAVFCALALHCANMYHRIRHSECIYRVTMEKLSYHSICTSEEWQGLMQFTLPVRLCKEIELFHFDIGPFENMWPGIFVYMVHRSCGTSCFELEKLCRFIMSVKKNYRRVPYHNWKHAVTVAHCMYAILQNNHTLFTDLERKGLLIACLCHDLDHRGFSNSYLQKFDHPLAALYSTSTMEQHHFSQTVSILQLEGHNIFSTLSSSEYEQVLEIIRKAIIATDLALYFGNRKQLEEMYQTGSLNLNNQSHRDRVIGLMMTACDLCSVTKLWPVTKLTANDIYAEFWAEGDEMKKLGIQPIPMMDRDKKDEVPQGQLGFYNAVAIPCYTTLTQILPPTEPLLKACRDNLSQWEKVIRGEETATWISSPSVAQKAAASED

Row | Structure (SMILES) | pIC50
1 | Cn1cc(NC(=O)c2nc(C3CC3)ccc2Nc2cncnc2)c(C(=O)N2CCCC2)n1 [Example 21, 6-Cyclopropyl-3-(pyrimidin-5-ylamino)-pyridine-2-carboxylic acid [1-methyl-3-(pyrrolidine-1-carbonyl)-1H-pyrazol-4-yl]-amide] | 8.15
2 | CNC(=O)c1cn2cc(-c3ccccc3)nc2cc1NC(=O)c1nc(C2CC2)ccc1Nc1cncnc1 [Example 81, 7-{[6-Cyclopropyl-3-(pyrimidin-5-ylamino)-pyridine-2-carbonyl]-amino}-2-phenyl-imidazo[1,2-a]pyridine-6-carboxylic acid methylamide] | 9.40
3 | CC(CO)NC(=O)c1ccncc1NC(=O)c1nc(C2CC2)ccc1Nc1cncnc1 (centres unmarked) [Example 66, 6-Cyclopropyl-3-(pyrimidin-5-ylamino)-pyridine-2-carboxylic acid [4-(2-hydroxy-1-methyl-ethylcarbamoyl)-pyridin-3-yl]-amide] | 7.32
4 | O=C(NC1COC1)c1ccncc1NC(=O)c1nc(C2CC2)cnc1Nc1cncnc1 [Example 106, 6-Cyclopropyl-3-(pyrimidin-5-ylamino)-pyrazine-2-carboxylic acid [4-(oxetan-3-ylcarbamoyl)-pyridin-3-yl]-amide] | 8.59
5 | CNC(=O)c1cc(OCCOC)ccc1NC(=O)c1nc(C2CC2)cnc1Nc1cncnc1 [Example 214, 6-Cyclopropyl-3-(pyrimidin-5-ylamino)-pyrazine-2-carboxylic acid [4-(2-methoxy-ethoxy)-2-methylcarbamoyl-phenyl]-amide] | 9.00
6 | CC(C)(O)CNC(=O)c1nc(C2CC2)ccc1NC(=O)c1nc(C2CC2)cnc1Nc1cncnc1 [Example 159, 6-Cyclopropyl-3-(pyrimidin-5-ylamino)-pyrazine-2-carboxylic acid [6-cyclopropyl-2-(2-hydroxy-2-methyl-propylcarbamoyl)-pyridin-3-yl]-amide] | 9.40
7 | CC1CCC(C)N1C(=O)c1ccncc1NC(=O)c1nc(C2CC2)ccc1Nc1cncnc1 (centres unmarked) [Example 59, 6-Cyclopropyl-3-(pyrimidin-5-ylamino)-pyridine-2-carboxylic acid [4-(2,5-dimethyl-pyrrolidine-1-carbonyl)-pyridin-3-yl]-amide] | 7.07
8 | CC(C)n1ncc(NC(=O)c2nc(C3CC3)cnc2Nc2cncnc2)c1C(=O)NCC(C)(C)O [Example 138, 6-Cyclopropyl-3-(pyrimidin-5-ylamino)-pyrazine-2-carboxylic acid [5-(2-hydroxy-2-methyl-propylcarbamoyl)-1-isopropyl-1H-pyrazol-4-yl]-amide] | 7.60
9 | CN(CC(C)(C)O)C(=O)c1ncncc1NC(=O)c1nc(C2CC2)cnc1Nc1cncnc1 [Example 122, 5-{[6-Cyclopropyl-3-(pyrimidin-5-ylamino)-pyrazine-2-carbonyl]-amino}-pyrimidine-4-carboxylic acid (2-hydroxy-2-methyl-propyl)-methyl-amide] | 7.34
10 | CCn1cc(NC(=O)c2nc(C3CC3)cnc2Nc2cncnc2)c(C(=O)NCC2CCCO2)n1 (centres unmarked) [Example 108, 6-Cyclopropyl-N-(1-ethyl-3-((tetrahydrofuran-2-yl)methylcarbamoyl)-1H-pyrazol-4-yl)-3-(pyrimidin-5-ylamino)pyrazine-2-carboxamide] | 7.40
11 | CNC(=O)c1cc(C#N)ccc1NC(=O)c1nc(C2CC2)cnc1Nc1cncnc1 [Example 261, 6-Cyclopropyl-3-(pyrimidin-5-ylamino)-pyrazine-2-carboxylic acid (4-cyano-2-methylcarbamoyl-phenyl)-amide] | 8.46
12 | CNC(=O)c1c(NC(=O)c2nc(C(C)C)ncc2Nc2cccc(F)c2)cnn1C [Example 188, 5-(3-Fluoro-phenylamino)-2-isopropyl-pyrimidine-4-carboxylic acid (1-methyl-5-methylcarbamoyl-1H-pyrazol-4-yl)-amide] | 7.29
13 | CNC(=O)c1c(NC(=O)c2nc(C3CC3)ncc2Nc2cncnc2)cnn1C [Example 314, 2-Cyclopropyl-5-(pyrimidin-5-ylamino)-pyrimidine-4-carboxylic acid (1-methyl-5-methylcarbamoyl-1H-pyrazol-4-yl)-amide] | 7.46
14 | CN1CC(NC(=O)c2c(NC(=O)c3nc(C4CC4)cnc3Nc3cncnc3)cnn2C)C1 [Example 315, 6-Cyclopropyl-3-(pyrimidin-5-ylamino)-pyrazine-2-carboxylic acid [1-methyl-5-(1-methyl-azetidin-3-ylcarbamoyl)-1H-pyrazol-4-yl]-amide] | 7.95
15 | CN(CCO)C(=O)c1ccncc1NC(=O)c1nc(C2CC2)ccc1Nc1cncnc1 [Example 73, 6-Cyclopropyl-3-(pyrimidin-5-ylamino)-pyridine-2-carboxylic acid {4-[(2-hydroxy-ethyl)-methyl-carbamoyl]-pyridin-3-yl}-amide] | 7.72
16 | CN(CC(O)CO)C(=O)c1nn(C)cc1NC(=O)c1nc(C2CC2)ccc1Nc1cncnc1 (centres unmarked) [Example 46, 6-Cyclopropyl-3-(pyrimidin-5-ylamino)-pyridine-2-carboxylic acid {3-[(2,3-dihydroxy-propyl)-methyl-carbamoyl]-1-methyl-1H-pyrazol-4-yl}-amide] | 7.71

Row | Structure (SMILES) | pIC50
17 | COc1cccc(NC(=O)c2nc(C3CC3)cnc2Nc2cncnc2)c1C(=O)N(C)C [Example 206, 6-Cyclopropyl-3-(pyrimidin-5-ylamino)-pyrazine-2-carboxylic acid (2-dimethylcarbamoyl-3-methoxy-phenyl)-amide] | 7.91
18 | CNC(=O)c1c(NC(=O)c2nc(OC)cnc2Nc2cncnc2)cnn1C [Example 258, 6-Methoxy-3-(pyrimidin-5-ylamino)-pyrazine-2-carboxylic acid (1-methyl-5-methylcarbamoyl-1H-pyrazol-4-yl)-amide] | 6.75
19 | CNC(=O)c1cc(Cl)ncc1NC(=O)c1nc(C2CC2)cnc1Nc1cncnc1 [Example 259, 6-Cyclopropyl-3-(pyrimidin-5-ylamino)-pyrazine-2-carboxylic acid (6-chloro-4-methylcarbamoyl-pyridin-3-yl)-amide] | 8.74
20 | CNC(=O)c1c(NC(=O)c2nc(C3CC3)ccc2Nc2cncnc2)cnn1CCOC [Example 11, 6-Cyclopropyl-3-(pyrimidin-5-ylamino)-pyridine-2-carboxylic acid [1-(2-methoxy-ethyl)-5-methylcarbamoyl-1H-pyrazol-4-yl]-amide] | 8.92
21 | O=C(Nc1cnccc1C(=O)N1CCCC1)c1nc(C2CC2)ccc1Nc1cncnc1 [Example 22, 6-Cyclopropyl-3-(pyrimidin-5-ylamino)-pyridine-2-carboxylic acid [4-(pyrrolidine-1-carbonyl)-pyridin-3-yl]-amide] | 7.73
22 | CN(CCCO)C(=O)c1nn(C)cc1NC(=O)c1nc(C2CC2)ccc1Nc1cncnc1 [Example 38, 6-Cyclopropyl-3-(pyrimidin-5-ylamino)-pyridine-2-carboxylic acid {3-[(3-hydroxy-propyl)-methyl-carbamoyl]-1-methyl-1H-pyrazol-4-yl}-amide] | 8.14
23 | CC(C)(O)CNC(=O)c1nc(C2CCCO2)ccc1NC(=O)c1nc(C2CC2)cnc1Nc1cncnc1 (centres unmarked) [Example 178, 6-Cyclopropyl-3-(pyrimidin-5-ylamino)-pyrazine-2-carboxylic acid [2-(2-hydroxy-2-methyl-propylcarbamoyl)-6-(tetrahydro-furan-2-yl)-pyridin-3-yl]-amide] | 10.00
24 | CNC(=O)c1c(NC(=O)c2nc(C(C)C)ncc2Nc2cncc(F)c2)cnn1C [Example 190, 5-(5-Fluoro-pyridin-3-ylamino)-2-isopropyl-pyrimidine-4-carboxylic acid (1-methyl-5-methylcarbamoyl-1H-pyrazol-4-yl)-amide] | 7.62
25 | CNC(=O)c1c(NC(=O)c2nc(C3CC3)cnc2Nc2cncnc2)ccc(C)c1C [Example 263, 6-Cyclopropyl-3-(pyrimidin-5-ylamino)-pyrazine-2-carboxylic acid (3,4-dimethyl-2-methylcarbamoyl-phenyl)-amide] | 7.27
26 | CNC(=O)c1c(F)cccc1NC(=O)c1nc(C2CC2)cnc1Nc1cncnc1 [Example 307, 6-Cyclopropyl-3-(pyrimidin-5-ylamino)-pyrazine-2-carboxylic acid (3-fluoro-2-methylcarbamoyl-phenyl)-amide] | 7.16
27 | Cn1cc(NC(=O)c2nc(C3CC3)ccc2Nc2cncnc2)c(C(=O)NC2CCCCC2)n1 [Example 28, 6-Cyclopropyl-3-(pyrimidin-5-ylamino)-pyridine-2-carboxylic acid (3-cyclohexylcarbamoyl-1-methyl-1H-pyrazol-4-yl)-amide] | 8.22
28 | CCN(C)C(=O)c1ncncc1NC(=O)c1nc(C2CC2)cnc1Nc1cncnc1 [Example 204, 5-{[6-Cyclopropyl-3-(pyrimidin-5-ylamino)-pyrazine-2-carbonyl]-amino}-pyrimidine-4-carboxylic acid ethyl-methyl-amide] | 7.28
29 | CCn1cc(NC(=O)c2nc(C3CC3)cnc2Nc2cncnc2)c(C(=O)NC)n1 [Example 107, 6-Cyclopropyl-N-(1-ethyl-3-(methylcarbamoyl)-1H-pyrazol-4-yl)-3-(pyrimidin-5-ylamino)pyrazine-2-carboxamide] | 6.93
30 | Cn1cc(NC(=O)c2nc(C3CC3)ccc2Nc2cncnc2)c(C(=O)N2CCC(F)(F)C2)n1 [Example 36, 6-Cyclopropyl-3-(pyrimidin-5-ylamino)-pyridine-2-carboxylic acid [3-(3,3-difluoro-pyrrolidine-1-carbonyl)-1-methyl-1H-pyrazol-4-yl]-amide] | 8.49
31 | CNC(=O)c1c(NC(=O)c2nc(C3CC3)cnc2Nc2cncnc2)ccc(F)c1F [Example 317, 6-Cyclopropyl-3-(pyrimidin-5-ylamino)-pyrazine-2-carboxylic acid (3,4-difluoro-2-methylcarbamoyl-phenyl)-amide] | 8.57
32 | CN(C(=O)c1nn(C)cc1NC(=O)c1nc(C2CC2)ccc1Nc1cncnc1)C1CC1 [Example 15, 6-Cyclopropyl-3-(pyrimidin-5-ylamino)-pyridine-2-carboxylic acid [3-(cyclopropyl-methyl-carbamoyl)-1-methyl-1H-pyrazol-4-yl]-amide] | 7.97
